Measured values reported in PubChem BioAssay (NCI).
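These data come from cells grown in 96-well plates and exposed to compound for 48 hours at five concentrations. TGI: total growth inhibition.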

Columns and labels:
Test in all cases: NCI tumour cell line growth inhibition, 48 h
MOLT-4 leukemia = system: MOLT-4 leukemia
MALME-3M melanoma = system: MALME-3M melanoma
MDA-MB-231 breast = system: MDA-MB-231 breast
ACHN renal = system: ACHN renal
NCI-H23 lung = system: NCI-H23 lung
MCF7 breast = system: MCF7 breast
HOP-62 NSCLC = system: HOP-62 NSCLC
K-562 leukemia = system: K-562 leukemia
OVCAR-3 ovarian = system: OVCAR-3 ovarian
KM12 colon = system: KM12 colon
SF-268 CNS = system: SF-268 CNS
NCI-H522 lung = system: NCI-H522 lung
DU-145 prostate = system: DU-145 prostate
BT-549 breast = system: BT-549 breast
COLO 205 colon = system: COLO 205 colon
HOP-92 NSCLC = system: HOP-92 NSCLC
PC-3 prostate = system: PC-3 prostate
SN12C renal = system: SN12C renal
SF-295 CNS = system: SF-295 CNS
CAKI-1 renal = system: CAKI-1 renal
RPMI-8226 leukemia = system: RPMI-8226 leukemia
SK-OV-3 ovarian = system: SK-OV-3 ovarian
U251 CNS = system: U251 CNS
UACC-257 melanoma = system: UACC-257 melanoma
OVCAR-5 ovarian = system: OVCAR-5 ovarian
SR leukemia = system: SR leukemia
SF-539 CNS = system: SF-539 CNS
SW-620 colon = system: SW-620 colon
MDA-MB-435 = system: MDA-MB-435
SNB-19 CNS = system: SNB-19 CNS
MDA-N = system: MDA-N
786-0 renal = system: 786-0 renal
SNB-75 CNS = system: SNB-75 CNS
SK-MEL-28 melanoma = system: SK-MEL-28 melanoma
NCI/ADR-RES ovarian = system: NCI/ADR-RES ovarian
A549 NSCLC = system: A549 NSCLC
LOX IMVI melanoma = system: LOX IMVI melanoma
OVCAR-8 ovarian = system: OVCAR-8 ovarian
TK-10 renal = system: TK-10 renal
HCT-15 colon = system: HCT-15 colon
M14 melanoma = system: M14 melanoma
HCC-2998 colon = system: HCC-2998 colon
HS 578T breast = system: HS 578T breast
HT29 colon = system: HT29 colon
SK-MEL-5 melanoma = system: SK-MEL-5 melanoma
HL-60(TB) leukemia = system: HL-60(TB) leukemia
HCT-116 colon = system: HCT-116 colon
OVCAR-4 ovarian = system: OVCAR-4 ovarian
SK-MEL-2 melanoma = system: SK-MEL-2 melanoma
A498 renal = system: A498 renal
UO-31 renal = system: UO-31 renal
RXF 393 renal = system: RXF 393 renal
EKVX NSCLC = system: EKVX NSCLC
UACC-62 melanoma = system: UACC-62 melanoma
NCI-H226 lung = system: NCI-H226 lung
NCI-H460 lung = system: NCI-H460 lung
CCRF-CEM leukemia = system: CCRF-CEM leukemia
IGROV1 ovarian = system: IGROV1 ovarian

With `OCCN1c2ccccc2Sc2ccccc21` the TGI (MOLT-4 leukemia) was greater than 10 µM, the TGI (MALME-3M melanoma) was greater than 10 µM and the TGI (MDA-MB-231 breast) was greater than 10 µM. It also gave a TGI (ACHN renal) greater than 10 µM, a TGI (NCI-H23 lung) greater than 10 µM and a TGI (MCF7 breast) greater than 10 µM. For the same compound, the TGI (HOP-62 NSCLC) was greater than 10 µM, the TGI (K-562 leukemia) was greater than 10 µM and the TGI (OVCAR-3 ovarian) was greater than 10 µM. The TGI (KM12 colon) was greater than 10 µM, the TGI (SF-268 CNS) was greater than 10 µM and the TGI (NCI-H522 lung) was greater than 10 µM. For the same compound, the TGI (DU-145 prostate) was greater than 10 µM, the TGI (BT-549 breast) was greater than 10 µM and the TGI (COLO 205 colon) was greater than 10 µM. For the same compound, the TGI (HOP-92 NSCLC) was greater than 10 µM, the TGI (PC-3 prostate) was greater than 10 µM and the TGI (SN12C renal) was greater than 10 µM. It also gave a TGI (SF-295 CNS) greater than 10 µM, a TGI (CAKI-1 renal) greater than 10 µM and a TGI (RPMI-8226 leukemia) greater than 10 µM. It also gave a TGI (SK-OV-3 ovarian) greater than 10 µM, a TGI (U251 CNS) greater than 10 µM and a TGI (UACC-257 melanoma) greater than 10 µM. It also gave a TGI (OVCAR-5 ovarian) greater than 10 µM, a TGI (SR leukemia) greater than 10 µM and a TGI (SF-539 CNS) greater than 10 µM. For the same compound, the TGI (SW-620 colon) was greater than 10 µM, the TGI (MDA-MB-435) was greater than 10 µM and the TGI (SNB-19 CNS) was greater than 10 µM. It also gave a TGI (MDA-N) greater than 10 µM, a TGI (786-0 renal) greater than 10 µM and a TGI (SNB-75 CNS) greater than 10 µM. It also gave a TGI (SK-MEL-28 melanoma) greater than 10 µM, a TGI (NCI/ADR-RES ovarian) greater than 10 µM and a TGI (A549 NSCLC) greater than 10 µM. It also gave a TGI (LOX IMVI melanoma) greater than 10 µM, a TGI (OVCAR-8 ovarian) greater than 10 µM and a TGI (TK-10 renal) greater than 10 µM. The TGI (HCT-15 colon) was greater than 10 µM, the TGI (M14 melanoma) was greater than 10 µM and the TGI (HCC-2998 colon) was greater than 10 µM. For the same compound, the TGI (HS 578T breast) was greater than 10 µM, the TGI (HT29 colon) was greater than 10 µM and the TGI (SK-MEL-5 melanoma) was greater than 10 µM. The TGI (HL-60(TB) leukemia) was greater than 10 µM, the TGI (HCT-116 colon) was greater than 10 µM and the TGI (OVCAR-4 ovarian) was greater than 10 µM.
`CC(C)C(=O)OCC1CCCN2CCCCC12` (stereo not drawn) showed a TGI (SK-MEL-2 melanoma) greater than 100 µM, a TGI (A498 renal) greater than 100 µM and a TGI (MOLT-4 leukemia) greater than 100 µM. The TGI (MALME-3M melanoma) was greater than 100 µM, the TGI (MDA-MB-231 breast) was greater than 100 µM and the TGI (ACHN renal) was greater than 100 µM. The TGI (NCI-H23 lung) was greater than 100 µM, the TGI (MCF7 breast) was greater than 100 µM and the TGI (HOP-62 NSCLC) was greater than 100 µM. For the same compound, the TGI (K-562 leukemia) was greater than 100 µM, the TGI (UO-31 renal) was greater than 100 µM and the TGI (OVCAR-3 ovarian) was greater than 100 µM. For the same compound, the TGI (KM12 colon) was greater than 100 µM, the TGI (SF-268 CNS) was greater than 100 µM and the TGI (DU-145 prostate) was greater than 100 µM. For the same compound, the TGI (BT-549 breast) was greater than 100 µM, the TGI (COLO 205 colon) was greater than 100 µM and the TGI (HOP-92 NSCLC) was greater than 100 µM. The TGI (PC-3 prostate) was greater than 100 µM, the TGI (SN12C renal) was greater than 100 µM and the TGI (SF-295 CNS) was greater than 100 µM. For the same compound, the TGI (RXF 393 renal) was greater than 100 µM, the TGI (CAKI-1 renal) was greater than 100 µM and the TGI (RPMI-8226 leukemia) was greater than 100 µM. For the same compound, the TGI (SK-OV-3 ovarian) was greater than 100 µM, the TGI (U251 CNS) was greater than 100 µM and the TGI (UACC-257 melanoma) was greater than 100 µM. The TGI (OVCAR-5 ovarian) was greater than 100 µM, the TGI (EKVX NSCLC) was greater than 100 µM and the TGI (SF-539 CNS) was greater than 100 µM. The TGI (SW-620 colon) was greater than 100 µM, the TGI (MDA-MB-435) was greater than 100 µM and the TGI (SNB-19 CNS) was greater than 100 µM. It also gave a TGI (MDA-N) greater than 100 µM, a TGI (786-0 renal) greater than 100 µM and a TGI (SNB-75 CNS) greater than 100 µM. It also gave a TGI (UACC-62 melanoma) greater than 100 µM, a TGI (NCI-H226 lung) greater than 100 µM and a TGI (SK-MEL-28 melanoma) greater than 100 µM. For the same compound, the TGI (NCI-H460 lung) was greater than 100 µM, the TGI (NCI/ADR-RES ovarian) was greater than 100 µM and the TGI (CCRF-CEM leukemia) was greater than 100 µM. The TGI (A549 NSCLC) was greater than 100 µM, the TGI (LOX IMVI melanoma) was greater than 100 µM and the TGI (OVCAR-8 ovarian) was greater than 100 µM. For the same compound, the TGI (TK-10 renal) was greater than 100 µM, the TGI (HCT-15 colon) was greater than 100 µM and the TGI (M14 melanoma) was greater than 100 µM. The TGI (HCC-2998 colon) was greater than 100 µM, the TGI (HS 578T breast) was greater than 100 µM and the TGI (HT29 colon) was 97.6 µM. The TGI (SK-MEL-5 melanoma) was greater than 100 µM, the TGI (HL-60(TB) leukemia) was greater than 100 µM and the TGI (HCT-116 colon) was greater than 100 µM. It also gave a TGI (OVCAR-4 ovarian) greater than 100 µM.
For `CC(C)C1=C(O)C2=C(C(=O)C1=O)C1(C)CCCC(C)(C)C1CC2O` (stereo not drawn), the TGI (SK-MEL-2 melanoma) was 11 µM, the TGI (A498 renal) was 38.6 µM and the TGI (MOLT-4 leukemia) was greater than 100 µM. For the same compound, the TGI (MALME-3M melanoma) was 16.6 µM, the TGI (MDA-MB-231 breast) was 9.46 µM and the TGI (ACHN renal) was 13.2 µM. For the same compound, the TGI (NCI-H23 lung) was 3.93 µM, the TGI (MCF7 breast) was 22.8 µM and the TGI (HOP-62 NSCLC) was 21.1 µM. For the same compound, the TGI (K-562 leukemia) was greater than 100 µM, the TGI (UO-31 renal) was 17.9 µM and the TGI (OVCAR-3 ovarian) was 29 µM. It also gave a TGI (KM12 colon) of 19 µM, a TGI (SF-268 CNS) greater than 100 µM and a TGI (NCI-H522 lung) of 53.7 µM. It also gave a TGI (DU-145 prostate) greater than 100 µM, a TGI (BT-549 breast) of 25.9 µM and a TGI (COLO 205 colon) greater than 100 µM. For the same compound, the TGI (IGROV1 ovarian) was 77.7 µM, the TGI (HOP-92 NSCLC) was 13.3 µM and the TGI (PC-3 prostate) was 31.7 µM. The TGI (SN12C renal) was 28 µM, the TGI (SF-295 CNS) was 64.4 µM and the TGI (RXF 393 renal) was 5.89 µM. For the same compound, the TGI (CAKI-1 renal) was 24.1 µM, the TGI (SK-OV-3 ovarian) was 45.5 µM and the TGI (U251 CNS) was greater than 100 µM. The TGI (UACC-257 melanoma) was 31.9 µM, the TGI (OVCAR-5 ovarian) was 43.2 µM and the TGI (SR leukemia) was 58.4 µM. The TGI (EKVX NSCLC) was 49.7 µM, the TGI (SF-539 CNS) was 52.7 µM and the TGI (SW-620 colon) was 63.2 µM. The TGI (MDA-MB-435) was 13.6 µM, the TGI (SNB-19 CNS) was 21.4 µM and the TGI (MDA-N) was 4.76 µM. For the same compound, the TGI (786-0 renal) was greater than 100 µM, the TGI (SNB-75 CNS) was greater than 100 µM and the TGI (UACC-62 melanoma) was 8.66 µM. The TGI (SK-MEL-28 melanoma) was 38.5 µM, the TGI (NCI-H460 lung) was 12.8 µM and the TGI (CCRF-CEM leukemia) was 23.6 µM. It also gave a TGI (A549 NSCLC) of 34.8 µM, a TGI (LOX IMVI melanoma) greater than 100 µM and a TGI (OVCAR-8 ovarian) of 90.7 µM. For the same compound, the TGI (TK-10 renal) was greater than 100 µM, the TGI (HCT-15 colon) was 13.8 µM and the TGI (M14 melanoma) was 15.3 µM. For the same compound, the TGI (HCC-2998 colon) was 12 µM, the TGI (HS 578T breast) was greater than 100 µM and the TGI (HT29 colon) was 62 µM. The TGI (SK-MEL-5 melanoma) was 5.23 µM, the TGI (HL-60(TB) leukemia) was 30.4 µM and the TGI (HCT-116 colon) was greater than 100 µM. For the same compound, the TGI (OVCAR-4 ovarian) was 82.6 µM.
